This is an account of results in PMC6515340, “Synthesis of a Fluorous-Tagged Hexasaccharide and Interaction with Growth Factors Using Sugar-Coated Microplates” (Molecules, 2019).

One assay deals with T1, Recombinant human NGF (Homo sapiens, UniProt P01138).
T1 construct: purchased Peprotech
As to the kind of experiment: Fluorous sugar-coated microplate direct binding assay, NGF. The source says:
(§1) An alternative strategy was also considered to study these molecular recognition events. This approach involved the non-covalent immobilization of the fluorinated hexamer 17 on microtiter plates (Figure 1). Fluorous-based microarrays for the investigation of carbohydrate-protein interactions have been previously developed. A C8F17 tail was employed for the noncovalent immobilization of sugar derivatives on fluorous coated glass slides. However, to the best of our knowledge, an experimental protocol to study the interactions between fluorous sugar-coated conventional microplates and proteins has not been published. […] Thus, we created a fluorinated surface ready for the immobilization of compound 17 through noncovalent fluorous-fluorous interactions. […] Then, the binding of the attached sugar 17 to growth factors was analyzed. Incubation with different concentrations of midkine, FGF-2 and NGF was carried out and the bound protein was detected by further incubations with the corresponding primary and fluorescently labelled secondary antibodies (see Materials and Methods). Finally, the fluorescence was recorded using a standard microplate reader. The observation of fluorescence signals confirmed the interaction between immobilized 17 and the protein at a particular concentration. […]
(§2) The fluorescence was read at 535 nm using a TRIAD multimode microplate reader (from Dynex). […]

In assay [1] the target is T2, FGF-2 (Homo sapiens, UniProt P09038). Description: Fluorous sugar-coated microplate direct binding assay, FGF-2. Details: purchased Peprotech.
Text: as §1, §2
Target sequence in this assay (P09038 135-288 limits assumed): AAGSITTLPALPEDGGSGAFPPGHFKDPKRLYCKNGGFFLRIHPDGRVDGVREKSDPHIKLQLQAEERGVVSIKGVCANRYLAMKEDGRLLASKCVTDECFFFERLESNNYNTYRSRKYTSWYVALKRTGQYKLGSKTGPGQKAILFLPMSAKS

Assay [2] addresses T3, midkine (Homo sapiens, UniProt P21741).
T3 sequence (P21741 21-143): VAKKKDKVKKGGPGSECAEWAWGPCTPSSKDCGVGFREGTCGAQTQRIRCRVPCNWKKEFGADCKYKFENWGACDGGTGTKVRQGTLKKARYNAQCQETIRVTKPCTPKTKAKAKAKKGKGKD
As to the kind of experiment: Fluorous sugar-coated microplate direct binding assay, midkine. Set-up: purchased Peprotech.
Text: as §1, §2

Assay [3] deals with T2, FGF-2. As to the kind of experiment: Fluorescence polarization (FP) competition experiment, FGF-2. The assay is classed as binding. The note with it: solution FP competition with fluorescent heparin-like hexasaccharide probe (10 nM), FGF-2 97 nM; average ± SD of three independent experiments. The source says: (§3) Thus, we initiated the study of the interactions between 17 and midkine, FGF-2 and NGF growth factors. First, we estimated the solution-phase binding affinities using our previously reported fluorescence polarization (FP) competition experiment (see Supplementary Materials). Briefly, we measured the ability of hexasaccharide 17 to compete with a fluorescent probe for protein binding. Thus, we calculated IC50 values as 17 concentration required for 50% inhibition. […] We also attempted to measure the binding of 17 to NGF.
(§4) Fluorescence polarization assays
(§5) In order to calculate IC 50 values, fluorescence polarization competition experiments were performed following our previously reported protocol. 1 Briefly, we recorded the fluorescence polarization from wells containing 20 µL of protein solution (midkine or FGF-2) and 10 µL of probe solution (a fluorescein labelled heparin-like hexasaccharide) in the presence of 10 µL of 17 solutions with different concentrations. 384-well microplates from Corning were used in these assays. After shaking in the dark for 5 min, the fluorescence polarization was measured using a TRIAD multimode microplate reader (from Dynex), with excitation and emission wavelengths of 485 and 535 nm, respectively. […]
(also on this page, place not known: r 2 Fluorescence Polarization (mP) IC50 r 2 Fluorescence Polarization (mP) IC50 r 2 Fluorescence Polarization (mP))
Target sequence in this assay (P09038 143-288): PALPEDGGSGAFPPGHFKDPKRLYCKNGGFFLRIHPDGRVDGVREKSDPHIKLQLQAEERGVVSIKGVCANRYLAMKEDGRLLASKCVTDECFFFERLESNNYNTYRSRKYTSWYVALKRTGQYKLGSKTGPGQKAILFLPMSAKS
(Polarisation of emitted light reports the rotation of a fluorescent probe.)

The target in a further assay is T4, Concanavalin A (Canavalia ensiformis, UniProt P02866).
T4 construct: purchased Sigma
As to the kind of experiment: Sugar-coated microplate control with FITC-labelled Concanavalin A. Format: binding. The note with it: fluorescently labelled protein at 11 µM. The method, then: (§6) Importantly, we performed a control experiment in which sugar 3, instead of hexamer 17, was immobilized on the fluorous-functionalized plate (see Supplementary Materials). […] In addition, wells coated with hexamer 17 were incubated with two fluorescently labelled non-GAG binding proteins, Concanavalin A and bovine serum albumin, at 11 µM concentration (see Supplementary Materials). Again, we observed no fluorescence signals from these wells.
(§7) 2. Control experiments using additional (irrelevant) proteins.
(§8) The wells of Nunc Immobilizer AminoTM 384 microtiter plates were functionalized with heptadecafluorononylamine linker and then filled with a solution of hexamer 17 as described in the Materials and Methods section of the main text. The resulting hexasaccharide 17-coated wells were ready to perform protein interaction studies. Blank wells were coated with the fluorous linker alone. […]
(§9) Finally, the fluorescence was read at 535 nm using a TRIAD multimode microplate reader (from Dynex). For each protein, the residual fluorescence intensities obtained from blank samples were subtracted from the sugar-coated well values. In Figure S4, we show the average fluorescence intensities of three replicates after incubation with BSA and ConA. For comparison purposes, we also display the fluorescence values obtained after incubation with a 375 nM solution of midkine (detected by antibody incubations). […]

Assay [4] deals with T3, midkine. As to the kind of experiment: Fluorescence polarization (FP) competition experiment, midkine. The assay is classed as binding. The note with it: midkine 63 nM.
Text: as §3, §4, §5
(also on this page, place not known: r 2 Fluorescence Polarization (mP) r 2 Fluorescence Polarization (mP) r 2 Fluorescence Polarization (mP))

The next assay deals with T5, bovine serum albumin (Bos taurus, UniProt P02769).
T5 construct: purchased Sigma-Aldrich
Description: Sugar-coated microplate control with FITC-labelled bovine serum albumin. Format: binding. To be noted: fluorescently labelled protein at 11 µM. The method, then: as §6, §7, §8, §9

Where [5] appears, read: read-out: KD,surf, sugar immobilized on fluorous-functionalized microplate, one-site binding model.

Values joined by “and” are separate entries in the source; they are usually repeats but may differ in a detail not shown here. Identical values can stand only once. “Also recorded” adds a separate entry of the source. Like-named read-outs stand apart in the source and are kept apart here.

T1 sequence (P01138 122-241): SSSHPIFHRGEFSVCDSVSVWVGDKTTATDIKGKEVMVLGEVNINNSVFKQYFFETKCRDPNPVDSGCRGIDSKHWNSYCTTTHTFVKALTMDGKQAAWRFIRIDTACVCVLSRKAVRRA
T5 sequence (P02769 25-607): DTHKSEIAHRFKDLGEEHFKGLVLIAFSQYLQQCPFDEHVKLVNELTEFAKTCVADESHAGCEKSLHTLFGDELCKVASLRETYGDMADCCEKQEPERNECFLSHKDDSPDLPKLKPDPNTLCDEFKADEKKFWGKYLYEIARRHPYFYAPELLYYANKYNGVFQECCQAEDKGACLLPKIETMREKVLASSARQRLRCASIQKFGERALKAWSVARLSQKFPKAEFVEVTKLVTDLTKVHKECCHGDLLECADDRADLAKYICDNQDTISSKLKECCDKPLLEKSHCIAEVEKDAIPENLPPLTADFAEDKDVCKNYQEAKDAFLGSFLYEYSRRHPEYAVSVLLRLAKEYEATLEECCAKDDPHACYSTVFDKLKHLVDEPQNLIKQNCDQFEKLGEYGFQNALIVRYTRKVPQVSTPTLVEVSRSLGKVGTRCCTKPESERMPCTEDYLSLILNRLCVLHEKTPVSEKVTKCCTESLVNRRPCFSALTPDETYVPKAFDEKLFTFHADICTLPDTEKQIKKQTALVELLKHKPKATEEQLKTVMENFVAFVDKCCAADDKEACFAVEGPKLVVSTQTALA

Consider `COc1ccc(O[C@@H]2O[C@H](COC(=O)CCC(F)(F)C(F)(F)C(F)(F)C(F)(F)C(F)(F)C(F)(F)C(F)(F)C(F)(F)F)[C@@H](O)[C@H](OCc3ccccc3)[C@H]2OC(=O)c2ccccc2)cc1` [Compound 3], for which the “fluorescence signal / interaction of immobilized sugar with NGF” value on Recombinant human NGF (control, sugar immobilized from 250 µM solution, 1.8 µM NGF) is recorded as “did not significantly interact; also recorded: No fluorescence signals above background”. Moreover, the “fluorescence signal / interaction of immobilized sugar with FGF-2” value on FGF-2 [1] (control, sugar immobilized from 250 µM solution, 387 nM FGF-2) is given as “did not significantly interact; also recorded: No fluorescence signals above background”. Also, at midkine [2] (control, sugar immobilized from 250 µM solution, 375 nM midkine), the “fluorescence signal / interaction of immobilized sugar with midkine” value is reported as “did not significantly interact; also recorded: No fluorescence signals above background”.

Turning to `COc1ccc(OC2OC(COC(=O)CCC(F)(F)C(F)(F)C(F)(F)C(F)(F)C(F)(F)C(F)(F)C(F)(F)C(F)(F)F)C(OC3OC(COS(=O)(=O)O)C(OS(=O)(=O)O)C(OC4OC(COC(=O)C(C)(C)C)C(OC5OC(COS(=O)(=O)O)C(OS(=O)(=O)O)C(OC6OC(COC(=O)C(C)(C)C)C(OC7OC(COS(=O)(=O)O)C(OS(=O)(=O)O)C(OC(=O)CCC(C)=O)C7N7C(=O)c8ccccc8C7=O)C(OCc7ccccc7)C6OC(=O)c6ccccc6)C5N5C(=O)c6ccccc6C5=O)C(OCc5ccccc5)C4OC(=O)c4ccccc4)C3N3C(=O)c4ccccc4C3=O)C(OCc3ccccc3)C2OC(=O)c2ccccc2)cc1` (centres unmarked) [Compound 17], the figures for the Kd on Recombinant human NGF (setting [5]), at FGF-2 [1] (setting [5]) and at midkine [2] (setting [5]) were 1600 ± 400 nM, 57 ± 10 nM and 16 ± 5 nM, respectively. Moreover, the IC50 (in general, the concentration that inhibits the measured activity by half) was 6300 ± 1600 nM at FGF-2 [3]; 428 nM and 479 nM and 431 nM at midkine [4] (Figure S1, individual competition curves, probe 10 nM, read-out: IC50 (single independent experiment)); 450 ± 30 nM on midkine [4] (solution FP competition with fluorescent heparin-like hexasaccharide probe (10 nM), average ± SD of three independent experiments, read-out: IC50). Further, the “interaction of immobilized sugar with Concanavalin A” value on Concanavalin A is on record as “did not interact”. Moreover, on bovine serum albumin, the “interaction of immobilized sugar with bovine serum albumin” value was “did not interact”.
